The values below come from ChEMBL document CHEMBL5214990, “Novel Aryl Alkamidazole Derivatives as Multifunctional Antifungal Inhibitors: Design, Synthesis, and Biological Evaluation” (J Med Chem, 2022).

The subject of data set [1] is Candida albicans. Nature of the data set: Induction of mitochondrial membrane depolarization in Candida albicans assessed as fungal cells with intact mitochondria measured after 24 hrs by JC-1 staining based flow cytometry (reference value: 95.9%). The class given is functional. For orientation: Flow cytometry measures light scatter and fluorescence of single cells or particles in a stream.

The nature of data set [2]: Hepatotoxicity in mouse infected with Candida albicans assessed as plasma AST level at 20 mg/kg, ip administered on days 2,4,6,8,10,12 and measured on day 14 (reference value: 53.4 +/-6.8 IU/L). Particulars: in vivo, 312 h, time 13 day. The class given is toxicity, organism-based.
The subject of data set [3] is Candida albicans. Nature of the data set: Antifungal activity against Candida albicans ATCC SC5314 assessed as inhibition of fungal growth measured after 72 hrs by CLSI based liquid medium dilution method. The class given is functional.
The test system of data set [4] is Mus musculus. Description: Anti-inflammatory activity in mouse infected with Candida albicans assessed as reduction in COX-2 expression in infection tissues at 20 mg/kg, ip administered on days 2,4,6,8,10,12 and measured on day 14 by western blot analysis. The class given is functional, organism-based. Particulars: time 13.0 day. On the technique in general: A western blot detects proteins with antibodies after separation by electrophoresis.

Another data set relates to Cryptococcus neoformans. Description: Antifungal activity against Cryptococcus neoformans assessed as inhibition of fungal growth measured after 72 hrs by CLSI based liquid medium dilution method. The class given is functional.
The nature of data set [5]: Hepatotoxicity in mouse infected with Candida albicans assessed as plasma ALT level at 20 mg/kg, ip administered on days 2,4,6,8,10,12 and measured on day 14 (reference value: 33.5 +/-3.4 IU/L). Particulars: in vivo, 312 h, time 13 day. The class given is toxicity, organism-based.
A short description of data set [6]: Renal toxicity in mouse infected with Candida albicans assessed as blood urea nitrogen level at 20 mg/kg, ip administered on days 2,4,6,8,10,12 and measured on day 14 (reference value: 16.2 +/-1.6 mmol/L). The class given is organism-based. The conditions noted are these: in vivo, 312 h, time 13 day.
For data set [7], the system named is Candida albicans. Description: Induction of apoptosis in Candida albicans assessed as late apoptotic cells measured after 24 hrs by Annexin V-FITC/PI staining based flow cytometry (reference value: 0.44%). The class given is functional.
For data set [8], the system named is Candida albicans. Description: Antifungal activity against Candida albicans infected in mouse assessed as reduction in fungal endogenous infection symptoms at 20 mg/kg, ip administered on days 2,4,6,8,10,12 and measured on day 14 by GMS staining based analysis. The class given is functional, organism-based. The conditions noted are these: time 13.0 day.
Data set [9] concerns Mus musculus. Description: Anti-inflammatory activity in mouse infected with Candida albicans assessed as reduction in IL-6R expression in infection tissues at 20 mg/kg, ip administered on days 2,4,6,8,10,12 and measured on day 14 by western blot analysis. The class given is functional, organism-based. The conditions noted are these: time 13.0 day.
In data set [10] the target is Lanosterol 14-alpha demethylase (Candida albicans (strain SC5314 / ATCC MYA-2876) (Yeast), UniProt P10613). Nature of the data set: Inhibition of CYP51 in Candida albicans ATCC SC5314 assessed as lanosterol content at 4 ug/ml measured after 48 hrs by GC-MS analysis. More on the design: scale not given: the % may be the effect or the level left. Particulars: at 4 µg/mL.

The test system of data set [11] is Mus musculus. Description: Anti-inflammatory activity in mouse infected with Candida albicans assessed as reduction in NF-kappaB p65 expression in spleen at 20 mg/kg, ip administered on days 2,4,6,8,10,12 and measured on day 14 by immunohistochemical analysis. The class given is functional, organism-based. The conditions noted are these: time 13.0 day.
Data set [12] relates to Candida albicans. Nature of the data set: Antifungal activity against Candida albicans infected in mouse assessed as reduction in fungal proliferation in the infection region at 20 mg/kg, ip administered on days 2,4,6,8,10,12 and measured on day 14 by GMS staining based analysis. The conditions noted are these: time 13.0 day. The class given is functional, organism-based.

In data set [13] the test system is Candida albicans. Nature of the data set: Antifungal activity against fluconazole-resistant Candida albicans CaR assessed as inhibition of fungal growth measured after 72 hrs by CLSI based liquid medium dilution method. The class given is functional.
Data set [14] is described as follows: Toxicity in mouse infected with Candida albicans assessed as morphological changes in kidney at 20 mg/kg, ip administered on days 2,4,6,8,10,12 and measured on day 14 by hematoxyin-eosin staining based analysis. The class given is organism-based. The conditions noted are these: in vivo, 312 h, time 13 day.
Data set [15] relates to Mus musculus. Description: Immunomodulatory activity in mouse infected with Candida albicans assessed as increase in expression intensity of CD3+ T cells in spleen at 20 mg/kg, ip administered on days 2,4,6,8,10,12 and measured on day 14 by immunohistochemical staining analysis relative to control. Particulars: time 13 day. The class given is functional, T-cell.
A short description of data set [16]: Toxicity in mouse infected with Candida albicans assessed as morphological changes in spleen at 20 mg/kg, ip administered on days 2,4,6,8,10,12 and measured on day 14 by hematoxyin-eosin staining based analysis. The class given is organism-based. The conditions noted are these: in vivo, 312 h, time 13 day.
In data set [17] the test system is Mus musculus. Description: Immunomodulatory activity in mouse infected with Candida albicans assessed as increase in expression intensity of CD8+ T cells in spleen at 20 mg/kg, ip administered on days 2,4,6,8,10,12 and measured on day 14 by immunohistochemical staining analysis relative to control. The class given is functional, T-cell. The conditions noted are these: time 13 day.

The nature of data set [18]: Toxicity in mouse infected with Candida albicans assessed as morphological changes in liver at 20 mg/kg, ip administered on days 2,4,6,8,10,12 and measured on day 14 by hematoxyin-eosin staining based analysis. The class given is organism-based. Particulars: in vivo, 312 h, time 13 day.
Data set [19] in a line: Increase in intracellular ROS level in Candida albicans assessed as fold increase in fluorescence intensity measured after 12 hrs by fluorescence microscopic analysis relative to control. The class given is functional.
The nature of data set [20]: Increase in intracellular ROS level in Cryptococcus neoformans assessed as fold increase in fluorescence intensity measured after 12 hrs by fluorescence microscopic analysis relative to control. The class given is functional.
The nature of data set [21]: Toxicity in mouse infected with Candida albicans assessed as morphological changes in lungs at 20 mg/kg, ip administered on days 2,4,6,8,10,12 and measured on day 14 by hematoxyin-eosin staining based analysis. The class given is organism-based. The conditions noted are these: in vivo, 312 h, time 13 day.
Data set [22] deals with Mus musculus. Description: Immunomodulatory activity in mouse infected with Candida albicans assessed as increase in expression intensity of CD3+ T cells in spleen at 20 mg/kg, ip administered on days 2,4,6,8,10,12 and measured on day 14 by immunohistochemical staining analysis relative to fluconazole. The class given is functional, T-cell. Particulars: time 13 day.
Data set [23] is described as follows: Toxicity in mouse infected with Candida albicans assessed as morphological changes in heart at 20 mg/kg, ip administered on days 2,4,6,8,10,12 and measured on day 14 by hematoxyin-eosin staining based analysis. Particulars: in vivo, 312 h, time 13 day. The class given is organism-based.
The test system of data set [24] is Mus musculus. Description: Immunomodulatory activity in mouse infected with Candida albicans assessed as increase in expression intensity of CD8+ T cells in spleen at 20 mg/kg, ip administered on days 2,4,6,8,10,12 and measured on day 14 by immunohistochemical staining analysis relative to fluconazole. The class given is functional, T-cell. The conditions noted are these: time 13 day.

In data set [25] the test system is Candida albicans. Nature of the data set: Antifungal activity against Candida albicans infected in mouse assessed as shrinkage of fungal infection region at 20 mg/kg, ip administered on days 2,4,6,8,10,12 and measured on day 14. The conditions noted are these: time 13.0 day. The class given is functional, organism-based.

In brackets after ≈: the same amount, converted by molar mass. Activity calls are given as the source filed them. The calls are words filed in the database; no cut-off is given here.

Chain of Lanosterol 14-alpha demethylase (P10613 whole entry): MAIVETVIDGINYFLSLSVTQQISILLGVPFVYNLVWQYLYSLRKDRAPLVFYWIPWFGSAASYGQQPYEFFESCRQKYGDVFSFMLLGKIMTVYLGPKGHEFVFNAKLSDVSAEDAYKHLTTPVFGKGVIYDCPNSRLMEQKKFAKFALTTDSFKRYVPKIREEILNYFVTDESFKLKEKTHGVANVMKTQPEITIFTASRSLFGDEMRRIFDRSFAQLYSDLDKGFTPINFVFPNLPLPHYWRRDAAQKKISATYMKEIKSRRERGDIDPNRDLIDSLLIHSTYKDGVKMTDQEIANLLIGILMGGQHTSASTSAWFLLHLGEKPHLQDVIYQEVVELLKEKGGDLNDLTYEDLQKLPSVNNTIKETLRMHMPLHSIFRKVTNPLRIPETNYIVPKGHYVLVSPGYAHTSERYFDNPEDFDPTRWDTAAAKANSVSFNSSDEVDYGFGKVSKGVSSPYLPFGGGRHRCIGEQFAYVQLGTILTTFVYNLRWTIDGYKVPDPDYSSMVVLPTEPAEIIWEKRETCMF

For orientation: MIC50 means the lowest concentration that inhibits either 50% of growth or 50% of the strains tested, depending on the study. For `OC(Cn1cncn1)(Cn1cncn1)c1ccc(F)cc1F` [FLUCONAZOLE], the Activity in the data set on Candida albicans [1] turned out to be 60.8%; in data set [2] it was 80.5 IU/L; in [5], 46.1 IU/L; in data set [6], 24.4 mmol/L; in the data set with Candida albicans [7], 5.96%; in data set [10] it was 35.17%. The values for the MIC50 in the data set with Candida albicans [3], in the data set on Cryptococcus neoformans and in the data set with Candida albicans [13] were 0.5 µg/mL (≈ 1.63 µM), 0.5 µg/mL (≈ 1.63 µM) and over 8 µg/mL, respectively. For the same compound, the outcome in the data set on Mus musculus [4], in the data set with Candida albicans [8], in the data set with Mus musculus [9], in the data set on Mus musculus [11] and with Candida albicans [12] was Active.
Regarding `C[C@H](C(=O)N(C)CC(O)(Cn1ccnc1)c1ccc(Cl)cc1Cl)c1cccc(C(=O)c2ccccc2)c1` (stereo partly specified), the Activity was 53.1% with Candida albicans [1]; “Non-Toxic” in data set [14]; 66.5 IU/L in data set [2]; “Non-Toxic” in data set [16]; “Non-Toxic” in data set [18]; “Non-Toxic” in data set [21]. Also, the Activity in data set [5] is on record as 43.2 IU/L; in [6] it was 17 mmol/L; in the data set on Candida albicans [7] it was 28.1%; in data set [23], “Non-Toxic”; in data set [10], 38.57%. The “fold change (FC)” value with Mus musculus [15] was found to be 2.12; with Mus musculus [17], 2.12; in data set [19], 4; in data set [20] it was 4; with Mus musculus [22], 2.12; with Mus musculus [24], 2.12. The results for the MIC50 in the data set on Candida albicans [3], with Cryptococcus neoformans and in the data set with Candida albicans [13] were 0.125 µg/mL (≈ 0.233 µM), 0.25 µg/mL (≈ 0.466 µM) and 1 µg/mL (≈ 1.86 µM), respectively. The outcome with Mus musculus [4], in the data set on Candida albicans [8], in the data set with Mus musculus [9], with Mus musculus [11], in the data set with Candida albicans [25] and in the data set on Candida albicans [12] was Active.
With `C[C@H](C(=O)N(C)CC(O)(Cn1ccnc1)c1ccc(Cl)cc1)c1ccc(-c2ccccc2)c(F)c1` (stereo partly specified), the Activity in the data set on Candida albicans [1] is 32.6%; in data set [14], “Non-Toxic”; in data set [2], 69.5 IU/L; in [16], “Non-Toxic”; in data set [18] it was “Non-Toxic”; in data set [21], “Non-Toxic”. The Activity in data set [5] was 42.4 IU/L; in data set [6] it was 20.5 mmol/L; in the data set with Candida albicans [7] it was 19.4%; in data set [23], “Non-Toxic”; in data set [10] it was 39.74%. The “fold change (FC)” value with Mus musculus [15] stood at 2.12; in the data set on Mus musculus [17] it was 2.12; in [19], 4; in [20], 4; in the data set with Mus musculus [22] it was 2.12; in the data set on Mus musculus [24], 2.12. Further, the MIC50 in the data set with Candida albicans [3] worked out at 0.125 µg/mL (≈ 0.254 µM); in the data set with Cryptococcus neoformans, 0.5 µg/mL (≈ 1.02 µM); in the data set on Candida albicans [13] it was 1 µg/mL (≈ 2.03 µM). The result with Mus musculus [4], in the data set with Candida albicans [8], with Mus musculus [9], in the data set with Mus musculus [11], in the data set on Candida albicans [25] and in the data set on Candida albicans [12] was Active.
